# Assay results as given in patent US20250230226A1, “PLXDC1/PLXDC2 ACTIVATORS AND THEIR USE IN THE TREATMENT OF BLOOD VESSEL DISORDERS” (THE REGENTS OF THE UNIVERSITY OF CALIFORNIA, priority 2019, published 2025).
# Tested on: LL/2 lung cancer tumor endothelial cells
# Assay: Lung LL2 ex vivo model of tumor angiogenesis
# Format: cell-based, mouse
# Details: for 48 hrs (morphology observations): LL/2 tumor endothelial cells; for Cell death: drug treatment for two days, ratio of red area to total endothelial cell area
# Protocol: An ex vivo tumor angiogenesis model was developed to test the efficacy of anti-cancer candidate agents. The following protocol describes the Ex Vivo Tumor Angiogenesis Model.
# • 1. The day before the experiment, all necessary tools were sprayed with 70% ethanol and sterilized under UV light overnight, including blade, dissecting and micro-dissecting scissors and […]. 24-well dishes were placed at 4° C. to pre-chill plates and Matrigel was thawed, 24 hours before tumor dissection. • 2. 70% ethanol was sprayed on working bench. Two sterile petri dishes were prepared with 10 ml sterile PBS. The following steps 3 and 4 are necessary for mouse tumor models. For fresh human tumor, steps 3 and 4 are skipped. • 3. The tumor-bearing mice were euthanized. 70% ethanol was sprayed on the mouse and the tumor was removed using sterilized dissecting tools (avoid the fur). The tumor was rinsed in petri dish with sterile PBS to remove ethanol and fur. The tumor was transferred to a new petri dish with PBS for dissection. The dish is placed on ice. • 4. Pre-chilled sterile pipet tips were used to seed regular Matrigel in 24 well plates on ice. Matrigel (30 μl) was dropped in the middle of each well without touching the edge of the well (avoid introducing bubbles if possible). • 5. The tumor was cut in halves using the sterile blade. Healthy tumor tissue that is not necrotic and is within the tumor capsule was identified and isolated. The healthy tumor tissue was cut into small pieces. For instance, a suitable size for the tumor tissue is 0.5 mm (H)×0.5 mm (L)×0.3 mm (D) with a total volume of 0.075 mm^3. • 6. Each tumor piece was gently transferred and embedded in the Matrigel drop in the 24-well plate. The embedded piece was placed in the bottom and middle of each Matrigel drop. The plate was kept on ice all the time. • 7. After seeding the tumor pieces, plates were incubated in a 37° C. cell culture incubator without medium for 10 minutes in order for the Matrigel to solidify. • 8. Endothelial Growth Medium (0.5 ml) was added to each well and incubated at 37° C. with 5% CO2. Treatment was not added until the new endothelial cells was grown out of the tumor or were larger than 3 mm in diameter. This usually takes 4 days for the LL2 Lewis lung cancer model and 7 days for the CT26 colon cancer model. For human tumor models, the growth time is typically 2-3 weeks, depending on the tumor type. Media was changed every 4 days during prolonged culture. Typically, when the tumor tissue grows to 2 mm in diameter, it was good for drug testing. A size of about 3 mm in diameter can make visualization easier. • 9. When the assay was ready to be analyzed for cell death (e.g., 48 hours after drug addition), the dye mixture was prepared by mixing 6 μl of green dye to stain live cells (5 mg/ml Fluorescein diacetate or FDA in DMSO) with 30 μl of red dye (2.5 mg/ml Propidium iodide or PI in PBS) to stain dead cells in an Eppendorf tube. The FDA dye needs to be stored frozen in a −20° C. freezer because it has a labile ester bond. • 10. 1 μl of the dye mixture was added to each well of the 24-well dish. It is usually preferred to do one 24-well dish at a time given the amount of time needed to take pictures (the green dye is not as stable in the cells in the long term). • 11. The dish was gently rocked a few times to mix the dye with the media in the wells and incubate the dish at 37° C. for 10 min (too long incubation can make the green signal too intense). • 12. Each well was washed with 0.5 ml of sterile PBS and then 0.5 ml of phenol red free SFM was added to each well. Alternatively 0.5 ml of regular Endothelial Cell Growth Media can be added to each well if this well needs to be continuously maintained after the experiment. • 13. An inverted microscope using the 2× objective lens was used to observe morphological changes in the experimental wells. • 14. […]
# [1] = Mus musculus, Endothelial cell, 48 h, read-out: Cell death
Structure (SMILES),48 hrs (morphology observations) (20 μm),Cell death (20 μm) [%],48 hrs (morphology observations) (40 μm),further results
CCCCCCCCCCOc1ccc(S(=O)(=O)c2cnc3ccc([S+](C)[O-])cc3c2N2CCC(N3CCN(CCO)CC3)CC2)cc1F (centres unmarked) [Compound 291],,,,"Cell death, read at 24 hrs (20 μm, (24 hrs)): 10%; Endothelial cell morphology score at 24 hrs (20 μm, (24 hrs)): * (50% or less of cells vesicularize in cell shape)"
CCCCOc1ccc(S(=O)(=O)c2cnc3ccc(S(C)(=O)=O)cc3c2N2CCC(N3CCCCC3)CC2)cc1 [Compound 169],0,40,,
CCOC(=O)c1ccc2ncc(S(=O)(=O)c3ccc(OC)cc3)c(N3CCC(N4CCCCCC4)CC3)c2c1 [Compound 173],,,,Cell death (40 μm): 50%
CCCCCCCCCCCCCCOc1ccc(S(=O)(=O)c2cnc3ccc([S+](C)[O-])cc3c2N2CCC(N3CCC(N4CCC(O)CC4)CC3)CC2)cc1F (centres unmarked) [Compound 373],* (50% or less of cells vesicularize in cell shape),20,,
CCCCCCCCCCOc1ccc(S(=O)(=O)c2cnc3ccc([S+](C)[O-])cc3c2N2CCC(N3CCC(N4CCCCC4)CC3)CC2)cc1 (centres unmarked) [Compound 269],**** (100% of endothelial cells vesicularize in cell shape and look flattened in morphology (indicating disintegration of the cell body)),100,,
CCCCCCCCCCCCCCCCOc1ccc(S(=O)(=O)c2cnc3ccc([S+](C)[O-])cc3c2N2CCC(N3CCC(N4CCCCC4)CC3)CC2)cc1 (centres unmarked) [Compound 377],0,10,,
CCN(c1c(S(=O)(=O)c2ccc(OC)cc2)cnc2cc(OC)c(OC)cc12)C(C)C [Compound 294],,,* (50% or less of cells vesicularize in cell shape),Cell death (40 μm): 50%
COc1ccc(S(=O)(=O)c2cnc3cc(OC)c(OC)cc3c2N2CCC(N3CCCCC3)CC2)cc1OC [Compound 122],0,10,,
CCCCCCCOc1ccc(S(=O)(=O)c2cnc3ccc(SC)cc3c2N2CCC(N3CCC(N4CCCCC4)CC3)CC2)cc1 [Compound 251],*** (more than 50% but less than 100% of endothelial cells vesicularize in cell shape),60,,
CCCCOc1ccc(S(=O)(=O)c2cnc3ccc(SC)cc3c2N2CCC(N3CCN(CCO)CC3)CC2)cc1 [Compound 230],,,*** (more than 50% but less than 100% of endothelial cells vesicularize in cell shape),cytotoxicity at 40 µM [1]: 100%
CCCCOc1ccc(S(=O)(=O)c2cnc3ccc(SC)cc3c2N2CCCN(C3CCSCC3)CC2)cc1 [Compound 358],,,0,cytotoxicity at 40 µM [1]: 0%
CCCCOc1ccc(S(=O)(=O)c2cnc3ccc(C(=O)NC4C(O)O[C@H](CO)[C@@H](O)[C@@H]4O)cc3c2N2CCCN(C)CC2)cc1 (some centres unmarked) [Compound 193],,,0,cytotoxicity at 40 µM [1]: 30%
CCCCOc1ccc(S(=O)(=O)c2cnc3ccc(SC)cc3c2N2CCCN(c3nc4ccc(Cl)cc4s3)CC2)cc1 [Compound 356],,,0,cytotoxicity at 40 µM [1]: 0%
COc1ccc(S(=O)(=O)c2cnc3cc(OC)c(OC)cc3c2N2CCC(N3CCCCC3)CC2)cc1 [Compound 320],,,0,Cell death (40 μm): 30%
CCOC(=O)c1ccc2ncc(S(=O)(=O)c3ccc(OC)cc3)c(N3CCCN(CCN4CCCC4)CC3)c2c1 [Compound 180],,,,48 hrs (morphology observations) (10 μm): *** (more than 50% but less than 100% of endothelial cells vesicularize in cell shape); Cell death (10 μm): 70%
CCCCOc1ccc(S(=O)(=O)c2cnc3ccc([S+](C)[O-])cc3c2N2CCC(N3CCC(N4CCCCC4)CC3)CC2)cc1 (centres unmarked) [Compound 237],,,*** (more than 50% but less than 100% of endothelial cells vesicularize in cell shape),Cell death (40 μm): 100%

Structure (SMILES),48 hrs (morphology observations) (20 μm),Cell death (20 μm) [%],48 hrs (morphology observations) (40 μm),further results
CCCCCCCOc1ccc(S(=O)(=O)c2cnc3ccc(SC)cc3c2N2CCC(N3CCCC(O)C3)CC2)cc1 (centres unmarked) [Compound 247],*** (more than 50% but less than 100% of endothelial cells vesicularize in cell shape),60,,
CCCCCCCCCCOc1ccc(S(=O)(=O)c2cnc3ccc([S+](C)[O-])cc3c2N2CCC(N3CCC(N4CCCCC4)CC3)CC2)cc1F (centres unmarked) [Compound 290],,,,48 hrs (morphology observations) (10 μm): *** (more than 50% but less than 100% of endothelial cells vesicularize in cell shape); cytotoxicity at 10 µM [1]: 50%
CCCCCCCOc1ccc(S(=O)(=O)c2cnc3ccc(SC)cc3c2N2CCN(C3CCN(C)CC3)CC2)cc1 [Compound 273],*** (more than 50% but less than 100% of endothelial cells vesicularize in cell shape),,,cytotoxicity at 20 µM [1]: 60%
CCCCCCCCCCOc1ccc(S(=O)(=O)c2cnc3ccc([S+](C)[O-])cc3c2N2CCC(N3CCC(N4CCCC(O)C4)CC3)CC2)cc1 (centres unmarked) [Compound 288],,,,48 hrs (morphology observations) (10 μm): *** (more than 50% but less than 100% of endothelial cells vesicularize in cell shape); Cell death (10 μm): 50%
COc1ccc(S(=O)(=O)c2cnc3cc(OC)c(OC)cc3c2N2CCC(N3CCCC3=O)CC2)cc1 [Compound 321],,,0,Cell death (40 μm): 40%
COc1ccc(S(=O)(=O)c2cnc3cc(OC)c(OC)cc3c2N2CCC(c3ccc(CN4CCCC4)cc3)CC2)cc1 [Compound 312],,,**** (100% of endothelial cells vesicularize in cell shape and look flattened in morphology (indicating disintegration of the cell body)),Cell death (40 μm): 100%
CCc1ccc(S(=O)(=O)c2cnc3ccc(OC(F)(F)F)cc3c2NCc2ccncc2)cc1 [Compound 106],0,5,,
CCN(CC)CCC(C)Nc1c(S(=O)(=O)c2ccc(OC)cc2)cnc2cc(OC)c(OC)cc12 (centres unmarked) [Compound 300],,,0,Cell death (40 μm): 20%
CC(C)CCCC(C)CCOc1ccc(S(=O)(=O)c2cnc3ccc([S+](C)[O-])cc3c2N2CCC(N3CCC(N4CCCCC4)CC3)CC2)cc1 (centres unmarked) [Compound 289],,20,,
CCCCCCCCCCOc1ccc(S(=O)(=O)c2cnc3ccc([S+](C)[O-])cc3c2N2CCN(C3CCN(CC)CC3)CC2)cc1 (centres unmarked) [Compound 283],,,,48 hrs (morphology observations) (10 μm): 0; cytotoxicity at 10 µM [1]: 5%
CCCCOc1ccc(S(=O)(=O)c2cnc3ccc(C(=O)OCC)cc3c2N2CCC(N3CCC(CO)CC3)CC2)cc1 [Compound 178],,,**** (100% of endothelial cells vesicularize in cell shape and look flattened in morphology (indicating disintegration of the cell body)),Cell death (40 μm): 100%
CCCCCCCOc1ccc(S(=O)(=O)c2cnc3ccc([S+](C)[O-])cc3c2N2CCN(CC3CCN(Cc4ccccc4)CC3)CC2)cc1 (centres unmarked) [Compound 279],**** (100% of endothelial cells vesicularize in cell shape and look flattened in morphology (indicating disintegration of the cell body)),100,,
CCCCCCCOc1ccc(S(=O)(=O)c2cnc3ccc(SC)cc3c2N2CCN(CC3CCN(Cc4ccccc4)CC3)CC2)cc1 [Compound 275],0,5,,
CCCCCCCCCCOc1ccc(S(=O)(=O)c2cnc3ccc([S+](C)[O-])cc3c2N2CCC(N3CCCC(O)C3)CC2)cc1 (centres unmarked) [Compound 265],,,,48 hrs (morphology observations) (10 μm): * (50% or less of cells vesicularize in cell shape); Cell death (10 μm): 20%
CNC(=O)c1ccc2ncc(S(=O)(=O)c3ccc(OC)cc3)c(N3CCC(N4CCCC4CO)CC3)c2c1 (centres unmarked) [Compound 336],,,0,Cell death (40 μm): 0%
CCCCCCCCCCOc1ccc(S(=O)(=O)c2cnc3ccc([S+](C)[O-])cc3c2N2CCC(N3CCCN(C)CC3)CC2)cc1 (centres unmarked) [Compound 267],,,,48 hrs (morphology observations) (10 μm): 0; Cell death (10 μm): 5%
